Here are results for 15 compounds from ChEMBL document CHEMBL1127882, “Synthesis of coumarins as subtype-selective inhibitors of monoamine oxidase” (Bioorg Med Chem Lett, 1994).

One assay deals with T1, Amine oxidase [flavin-containing] B (Rattus norvegicus, UniProt P19643).
T1 sequence (P19643 whole entry): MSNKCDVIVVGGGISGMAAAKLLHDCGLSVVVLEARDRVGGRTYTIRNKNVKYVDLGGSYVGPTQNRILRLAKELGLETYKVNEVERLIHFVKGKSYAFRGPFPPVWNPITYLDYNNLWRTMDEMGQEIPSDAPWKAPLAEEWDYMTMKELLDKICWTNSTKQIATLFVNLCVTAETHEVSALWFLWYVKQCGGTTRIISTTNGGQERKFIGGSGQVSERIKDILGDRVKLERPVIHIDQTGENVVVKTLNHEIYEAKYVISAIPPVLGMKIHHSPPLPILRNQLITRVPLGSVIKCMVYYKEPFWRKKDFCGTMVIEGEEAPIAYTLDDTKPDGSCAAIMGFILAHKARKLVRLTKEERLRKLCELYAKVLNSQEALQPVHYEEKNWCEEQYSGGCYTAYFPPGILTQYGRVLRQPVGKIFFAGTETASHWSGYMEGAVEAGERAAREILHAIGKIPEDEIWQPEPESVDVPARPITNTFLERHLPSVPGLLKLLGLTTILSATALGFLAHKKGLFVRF
Put plainly: In vitro inhibitory activity against monoamine oxidase B (MAO-B) in rat brain homogenate. The assay is classed as tissue-based.
For orientation: IC50 means the concentration at which inhibition is half-maximal. A lower IC50 goes with higher potency. The compound `Cc1c(C)c2ccc(OCc3ccccn3)cc2oc1=O` registered a half-maximal inhibitory concentration (IC50) of 0.009 µM.

For the compound `Cc1c(C)c2ccc(OCc3csc(C(C)C)n3)cc2oc1=O`, the IC50 was 0.0014 µM. Compared with the last compound, the IC50 is about 6.4-fold lower.

The compound `Cc1c(C)c2ccc(OC(C)c3ccc(C(C)C)cc3)cc2oc1=O` (stereo not given) displayed an IC50 of 10 µM. This IC50 lies about 7100-fold higher than the previous one.

In the case of `Cc1c(C)c2ccc(OS(C)(=O)=O)cc2oc1=O`, the IC50 was above 10 µM.

In turn, `CCCCCS(=O)(=O)Oc1ccc2c(C)c(C)c(=O)oc2c1` showed a half-maximal inhibitory concentration (IC50) of 2.2 µM.

As for `CCCCCCCCS(=O)(=O)Oc1ccc2c(C)c(C)c(=O)oc2c1`, the IC50 is above 10 µM.

The compound `Cc1nnc(COc2ccc3c(C)c(C)c(=O)oc3c2)o1` gave an IC50 of 0.015 µM.

For `Cc1c(C)c2ccc(OCc3ccc(C(C)C)cc3)c(C)c2oc1=O`, the IC50 was above 10 µM.

Compound `Cc1c(C)c2ccc(O)cc2oc1=O` returned a 50% inhibitory concentration (IC50) above 10 µM.

The compound `COc1ccc2c(C)c(C)c(=O)oc2c1` came in with an IC50 of 0.0005 µM.

`Cc1c(C)c2ccc(OCc3cc(C4CC4)on3)cc2oc1=O` displayed an IC50 of 0.0008 µM.

In the case of `Cc1c(C)c2ccc(OCc3nnc(C(C)C)s3)cc2oc1=O` [ATIBEPRONE], the IC50 was 0.0009 µM.

Take `CCS(=O)(=O)Oc1ccc2c(C)c(C)c(=O)oc2c1` [ESUPRONE]: half-maximal inhibition (IC50) was put at 5 µM.

The target of the next assay is T2, Amine oxidase [flavin-containing] A (Rattus norvegicus, UniProt P21396).
T2 sequence (P21396 whole entry): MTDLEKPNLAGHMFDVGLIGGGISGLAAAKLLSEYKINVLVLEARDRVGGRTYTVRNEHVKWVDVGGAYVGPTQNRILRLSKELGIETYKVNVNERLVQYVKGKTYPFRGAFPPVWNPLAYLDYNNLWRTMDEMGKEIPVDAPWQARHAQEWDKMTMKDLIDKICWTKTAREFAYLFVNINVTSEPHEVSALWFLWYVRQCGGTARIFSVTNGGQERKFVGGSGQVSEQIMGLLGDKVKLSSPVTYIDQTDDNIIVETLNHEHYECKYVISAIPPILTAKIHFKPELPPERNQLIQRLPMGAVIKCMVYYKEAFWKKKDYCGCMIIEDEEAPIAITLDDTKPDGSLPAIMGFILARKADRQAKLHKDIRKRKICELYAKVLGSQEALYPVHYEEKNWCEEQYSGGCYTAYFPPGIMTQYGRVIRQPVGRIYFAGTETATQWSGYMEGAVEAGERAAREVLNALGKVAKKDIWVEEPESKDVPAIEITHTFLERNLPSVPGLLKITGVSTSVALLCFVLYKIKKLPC
Put plainly: In vitro inhibitory against monoamine oxidase A (MAO-A) in rat brain homogenate. The class given is tissue-based.
Compound `Cc1c(C)c2ccc(OCc3ccccn3)cc2oc1=O` came in with an IC50 of 1.8 µM.

Turning to `Cc1c(C)c2ccc(OCc3csc(C(C)C)n3)cc2oc1=O`, half-maximal inhibition (IC50) was put at 10 µM.

Regarding `Cc1c(C)c2ccc(OCc3nc(C(C)C)no3)cc2oc1=O`, the IC50 is above 10 µM.

For `Cc1c(C)c2ccc(OC(C)c3ccc(C(C)C)cc3)cc2oc1=O` (stereo not given), the IC50 is above 10 µM.

The compound `CCCCCS(=O)(=O)Oc1ccc2c(C)c(C)c(=O)oc2c1` showed a concentration for half-maximal inhibition (IC50) of 0.016 µM.

For the compound `Cc1nnc(COc2ccc3c(C)c(C)c(=O)oc3c2)o1`, the IC50 came out at 5.6 µM.

On to `Cc1c(C)c2ccc(OCc3ccc(C(C)C)cc3)c(C)c2oc1=O`, for which the IC50 was above 10 µM.

As to `Cc1c(C)c2ccc(O)cc2oc1=O`, the IC50 was around 10 µM.

`COc1ccc2c(C)c(C)c(=O)oc2c1`: inhibition was half-maximal at 0.071 µM (IC50).

Compound `Cc1c(C)c2ccc(OCc3cc(C4CC4)on3)cc2oc1=O` gave an IC50 of 7 µM.

As for `Cc1c(C)c2ccc(OCc3nnc(C(C)C)s3)cc2oc1=O` [ATIBEPRONE], the half-maximal inhibitory concentration (IC50) is above 10 µM.

As to `COc1cc(Br)c2oc(C3CCNCC3)cc2c1` [BROFAROMINE], the half-maximal inhibitory concentration (IC50) turned out to be 0.005 µM.
